Experimental data taken from patent US20230233569A1 (Revolution Medicines, Inc., priority 2020, published 2023).
Several values for one entry are separate records, joined by “and”; a condition that tells them apart may be missing. Identical values can stand only once. Like-named read-outs stand apart in the source and are kept apart here.

Assays:
Assay in all cases: Disruption of BRAF RBD interaction with Ras (FRET / MOA assay, with Cyclophilin A)
Type in all cases: biochemical
[1] = target: NRAS Q61K (Homo sapiens, UniProt P01111+P62937, Q61K); settings: NRAS Q61K; read-out: NRAS Q61K FRET data IC50
NRAS Q61K, sequence (P01111 whole entry Q61K): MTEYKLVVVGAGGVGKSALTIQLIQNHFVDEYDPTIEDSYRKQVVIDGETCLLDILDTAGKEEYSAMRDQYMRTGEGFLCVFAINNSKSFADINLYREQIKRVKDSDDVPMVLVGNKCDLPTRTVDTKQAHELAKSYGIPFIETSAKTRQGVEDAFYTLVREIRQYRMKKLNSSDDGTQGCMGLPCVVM
NRAS Q61K, sequence (P62937 whole entry): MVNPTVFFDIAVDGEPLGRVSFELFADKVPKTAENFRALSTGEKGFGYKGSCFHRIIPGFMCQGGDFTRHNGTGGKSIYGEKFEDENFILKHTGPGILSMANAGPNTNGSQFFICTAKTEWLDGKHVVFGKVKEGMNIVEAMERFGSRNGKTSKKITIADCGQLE
Summary of the method: (§1)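 TR-FRET in 25 mM HEPES pH 7.3, 100 mM NaCl, 5 mM MgCl2, 0.1% BSA: 25 μM Cyclophilin A, 12.5 nM His6-Ras-GMPPNP, 50 nM GST-BRAF RBD with compound (10-point 3-fold series from 30 μM), 3 h at 25° C. Anti-His Eu/anti-GST APC added, 1.5 h more; IC50 from decreased FRET ratio versus DMSO.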

[2] = target: NRAS Q61R (Homo sapiens, UniProt P01111+P62937, Q61R); settings: NRAS Q61R; read-out: NRAS Q61R FRET data IC50
NRAS Q61R, sequence (P01111 whole entry Q61R): as the sequence (P01111 whole entry Q61K) above, with K61R counted along it
NRAS Q61R, sequence (P62937 whole entry): as the sequence (P62937 whole entry) above
Summary of the method: as §1

[3] = target: KRAS Q61H (Homo sapiens, UniProt P01116+P62937, Q61H); settings: KRAS Q61H; read-out: KRAS Q61H FRET data IC50
KRAS Q61H, sequence (P01116 1-169 isoform P01116-2 Q61H limits assumed): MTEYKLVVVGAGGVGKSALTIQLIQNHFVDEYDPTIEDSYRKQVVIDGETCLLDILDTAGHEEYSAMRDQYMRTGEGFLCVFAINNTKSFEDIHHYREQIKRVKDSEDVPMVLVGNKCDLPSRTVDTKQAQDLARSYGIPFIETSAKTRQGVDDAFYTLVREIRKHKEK
KRAS Q61H, sequence (P62937 whole entry): as the sequence (P62937 whole entry) above
Summary of the method: as §1

[4] = target: KRAS G13C (Homo sapiens, UniProt P01116+P62937, G13C)
KRAS G13C, sequence (P01116 1-169 isoform P01116-2 G13C): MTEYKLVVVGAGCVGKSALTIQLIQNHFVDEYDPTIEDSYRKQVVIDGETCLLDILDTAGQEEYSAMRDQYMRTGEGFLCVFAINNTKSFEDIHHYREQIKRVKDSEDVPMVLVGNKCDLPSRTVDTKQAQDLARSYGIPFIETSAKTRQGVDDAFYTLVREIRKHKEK
KRAS G13C, sequence (P62937 whole entry): as the sequence (P62937 whole entry) above
Summary of the method: (§2)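 IC50 values reflect loss of K-Ras binding to BRAF RBD, read as a lowered TR-FRET ratio compared with DMSO, driven by compound-mediated K-Ras:Cyclophilin A complex formation. Compound top dose 30 μM final, 3-fold steps, 3 h incubation at 25 °C before a 1.5 h antibody step.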

[5] = target: NRAS G12C (Homo sapiens, UniProt P01111+P62937, G12C); settings: NRAS G12C; read-out: NRAS G12C FRET data IC50
NRAS G12C, sequence (P01111 whole entry G12C): as the sequence (P01111 whole entry Q61K) above, with G12C, K61Q counted along it
NRAS G12C, sequence (P62937 whole entry): as the sequence (P62937 whole entry) above

[6] = target: KRAS G13D (Homo sapiens, UniProt P01116+P62937, G13D)
KRAS G13D, sequence (P01116 1-169 isoform P01116-2 G13D limits assumed): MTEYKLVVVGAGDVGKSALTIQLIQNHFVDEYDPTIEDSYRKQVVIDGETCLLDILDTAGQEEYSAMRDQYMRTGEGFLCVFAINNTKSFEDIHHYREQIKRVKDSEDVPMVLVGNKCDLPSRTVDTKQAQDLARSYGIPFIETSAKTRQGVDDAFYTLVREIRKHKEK
KRAS G13D, sequence (P62937 whole entry): as the sequence (P62937 whole entry) above
Summary of the method: as §2

[7] = target: KRAS WT (Homo sapiens, UniProt P01116+P62937); settings: KRAS WT; read-out: KRAS WT FRET data IC50
KRAS WT, sequence (P01116 1-169 isoform P01116-2 limits assumed): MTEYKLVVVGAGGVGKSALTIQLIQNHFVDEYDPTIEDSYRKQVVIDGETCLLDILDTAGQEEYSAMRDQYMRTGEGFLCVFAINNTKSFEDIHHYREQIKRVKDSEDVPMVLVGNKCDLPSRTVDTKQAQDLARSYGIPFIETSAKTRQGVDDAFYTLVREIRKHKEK
KRAS WT, sequence (P62937 whole entry): as the sequence (P62937 whole entry) above
Summary of the method: as §2

[8] = target: KRAS G12V (Homo sapiens, UniProt P01116+P62937, G12V)
KRAS G12V, sequence (P01116 1-169 isoform P01116-2 G12V limits assumed): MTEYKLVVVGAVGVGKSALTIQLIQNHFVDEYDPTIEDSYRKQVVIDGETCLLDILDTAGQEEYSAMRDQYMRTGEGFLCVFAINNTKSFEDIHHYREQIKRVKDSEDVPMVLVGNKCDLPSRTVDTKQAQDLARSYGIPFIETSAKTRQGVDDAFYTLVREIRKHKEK
KRAS G12V, sequence (P62937 whole entry): as the sequence (P62937 whole entry) above
Summary of the method: as §2

[9] = target: KRAS G12S (Homo sapiens, UniProt P01116+P62937, G12S); settings: read-out: KRAS G12S FRET data, IC50
KRAS G12S, sequence (P01116 1-169 isoform P01116-2 G12S limits assumed): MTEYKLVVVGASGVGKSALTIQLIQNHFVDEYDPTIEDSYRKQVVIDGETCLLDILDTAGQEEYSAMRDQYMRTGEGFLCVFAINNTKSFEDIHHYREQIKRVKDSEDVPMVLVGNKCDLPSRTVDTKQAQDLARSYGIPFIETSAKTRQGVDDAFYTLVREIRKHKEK
KRAS G12S, sequence (P62937 whole entry): as the sequence (P62937 whole entry) above
Summary of the method: as §2

[10] = target: KRAS G12C (Homo sapiens, UniProt P01116+P62937, G12C)
KRAS G12C, sequence (P01116 1-169 isoform P01116-2 G12C): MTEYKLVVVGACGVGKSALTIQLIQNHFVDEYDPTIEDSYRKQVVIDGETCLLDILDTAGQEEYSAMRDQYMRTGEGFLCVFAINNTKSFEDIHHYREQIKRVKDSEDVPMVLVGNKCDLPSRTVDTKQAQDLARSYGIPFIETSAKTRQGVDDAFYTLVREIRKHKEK
KRAS G12C, sequence (P62937 whole entry): as the sequence (P62937 whole entry) above
Summary of the method: as §2

[11] = target: KRAS G12D (Homo sapiens, UniProt P01116+P62937, G12D)
KRAS G12D, sequence (P01116 1-169 isoform P01116-2 G12D limits assumed): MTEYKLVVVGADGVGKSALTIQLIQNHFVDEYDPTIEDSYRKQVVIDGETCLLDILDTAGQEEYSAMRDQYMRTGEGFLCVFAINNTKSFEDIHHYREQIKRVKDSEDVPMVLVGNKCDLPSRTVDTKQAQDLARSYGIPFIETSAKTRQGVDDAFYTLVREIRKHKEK
KRAS G12D, sequence (P62937 whole entry): as the sequence (P62937 whole entry) above
Summary of the method: as §2

[12] = KRAS G12V, read-out: KRAS G12V FRET data IC50
[13] = read-out: KRAS G12D FRET data, IC50
[14] = KRAS G13C, read-out: KRAS G13C FRET data IC50
[15] = KRAS G13D, read-out: KRAS G13D FRET data IC50
[16] = KRAS G12C, read-out: KRAS G12C FRET data IC50

Compound	IC50 [1] [nM]	IC50 [2] [nM]	IC50 [3] [nM]	IC50 ([4]; read-out: FRET G13C IC50) [nM]	IC50 ([4]; read-out: KRAS G13C FRET data, IC50)	IC50 [5]	IC50 ([6]; read-out: FRET G13D IC50) [nM]	IC50 [7]	IC50 [8, 12]	IC50 ([8]; read-out: FRET G12V IC50) [nM]	IC50 [9]	IC50 ([10]; read-out: FRET G12C IC50) [nM]	IC50 ([10]; read-out: KRAS G12C FRET data, IC50)	IC50 ([11]; read-out: FRET G12D IC50) [nM]	IC50 [11, 13]	IC50 [4, 14] [nM]	IC50 [6, 15] [nM]	IC50 [10, 16] [nM]
CCn1c(-c2cccnc2[C@H](C)OC)c2c3cc(ccc31)-c1cc(O)cc(c1)C[C@H](NC(=O)[C@H](C(C)C)N(C)C(=O)[C@H]1CCN(C(=O)OC)C1)C(=O)N1CCC[C@H](N1)C(=O)OCC(C)(C)C2 (atropisomer, axis not shown) [Example A3]	100 to 1000	100 to 1000	10 to 100	99	1000 to 10000 nM and 10 to 100 nM	1000 to 10000 nM and 10 to 100 nM	160	1000 to 10000 nM and 10 to 100 nM	1000 to 10000 nM and 10 to 100 nM	43	1000 to 10000 nM and 10 to 100 nM	29	1000 to 10000 nM and 10 to 100 nM	545	100 to 1000 nM and > 10000 nM			
CCn1c(-c2cccnc2[C@H](C)OC)c2c3cc(ccc31)-c1csc(n1)C[C@H](NC(=O)[C@H](C(C)C)N(C)C(=O)N(C)C1CN(C(=O)/C=C/C(C)(C)O)C1)C(=O)N1CCC[C@H](N1)C(=O)OCC(C)(C)C2 (atropisomer, axis not shown) [Example A350]	10 to 100	100 to 1000	10 to 100			10 to 100 nM		100 to 1000 nM	100 to 1000 nM		100 to 1000 nM				1000 to 10000 nM	100 to 1000	100 to 1000	10 to 100
CCn1c(-c2cccnc2[C@H](C)OC)c2c3cc(ccc31)-c1cccc(c1)C[C@H](NC(=O)[C@@H](COC1CN(C(=O)C#C[C@@H]3COCCN3C)C1)C(C)C)C(=O)N1CCC[C@H](N1)C(=O)OCC(C)(C)C2 (atropisomer, axis not shown) [Example A648]	> 10000	> 10000	> 10000			100 to 1000 nM		1000 to 10000 nM	> 10000 nM		> 10000 nM				> 10000 nM	1000 to 10000	> 10000	100 to 1000
C=CC(=O)N1CC[C@]2(C1)OCN(C(=O)N(C)[C@H](C(=O)N[C@H]1Cc3cccc(n3)-c3ccc4c(c3)c(c(-c3cccnc3[C@H](C)OC)n4CC)CC(C)(C)COC(=O)[C@@H]3CCCN(N3)C1=O)C(C)C)C2=O (atropisomer, axis not shown) [Example A652]	1000 to 10000	1000 to 10000	1000 to 10000			100 to 1000 nM		1000 to 10000 nM	1000 to 10000 nM		1000 to 10000 nM				> 10000 nM	100 to 1000	1000 to 10000	100 to 1000
C=CC(=O)N1CC[C@H](C(=O)N(C)[C@H](C(=O)N[C@H]2Cc3nsc(n3)-c3ccc4c(c3)c(c(-c3cccnc3[C@H](C)OC)n4CC)CC(C)(C)COC(=O)[C@@H]3CCCN(N3)C2=O)C(C)C)C1 (atropisomer, axis not shown) [Example A694]	100 to 1000	1000 to 10000	100 to 1000			100 to 1000 nM		1000 to 10000 nM	1000 to 10000 nM		1000 to 10000 nM				1000 to 10000 nM	100 to 1000	1000 to 10000	100 to 1000
CCn1c(-c2cccnc2[C@H](C)OC)c2c3cc(ccc31)-c1csc(n1)C[C@H](NC(=O)[C@H](COC1CN(C(=O)C#CC(C)(C)N(C)C)C1)OC)C(=O)N1CCC[C@H](N1)C(=O)OCC(C)(C)C2 (atropisomer, axis not shown) [Example A705]	1000 to 10000	> 10000	1000 to 10000			< 10 nM		1000 to 10000 nM	1000 to 10000 nM		1000 to 10000 nM				> 10000 nM	1000 to 10000	> 10000	< 10
C=CC(=O)N1CC(OC[C@H](C(=O)N[C@H]2Cc3cc(F)cc(c3)-c3ccc4c(c3)c(c(-c3cccnc3[C@H](C)OC)n4CC)CC(C)(C)COC(=O)[C@@H]3CCCN(N3)C2=O)C(C)C)C1 (atropisomer, axis not shown) [Example A725]	1000 to 10000	1000 to 10000	100 to 1000			100 to 1000 nM		1000 to 10000 nM	1000 to 10000 nM		1000 to 10000 nM				> 10000 nM	100 to 1000	1000 to 10000	100 to 1000
C=CC(=O)N1CC[C@@H](N(C)C(=O)N(C)[C@H](C(=O)N[C@H]2Cc3nc(cs3)-c3ccc4c(c3)c(c(-c3cccnc3[C@H](C)OC)n4CC(F)(F)F)CC(C)(C)COC(=O)[C@@H]3CCCN(N3)C2=O)C(C)C)C1 (atropisomer, axis not shown) [Example A728]	100 to 1000	100 to 1000	100 to 1000			100 to 1000 nM		100 to 1000 nM	100 to 1000 nM		100 to 1000 nM				1000 to 10000 nM	100 to 1000	1000 to 10000	100 to 1000
C=CC(=O)N1CC[C@@]2(CCN2C(=O)N(C)[C@H](C(=O)N[C@H]2Cc3nc(cs3)-c3ccc4c(c3)c(c(-c3cccnc3[C@H](C)OC)n4CC)CC(C)(C)COC(=O)C3CCCN(N3)C2=O)N(C)C)C1 (single isomer, unassigned) [Example A661]	10 to 100	100 to 1000	10 to 100			10 to 100 nM		100 to 1000 nM	1000 to 10000 nM		100 to 1000 nM				1000 to 10000 nM	100 to 1000	100 to 1000	10 to 100
C=CC(=O)N1CC[C@H](C(=O)N(C)[C@H](C(=O)N[C@H]2Cc3cc(O)cc(c3)-c3ccc4c(c3)c(c(-c3cccnc3)n4C3CC3)CC(C)(C)COC(=O)[C@@H]3CCCN(N3)C2=O)C(C)C)C1 [Example A160]	> 10000	> 10000	1000 to 10000			1000 to 10000 nM		> 10000 nM	> 10000 nM		> 10000 nM				> 10000 nM	> 10000	> 10000	100 to 1000
C=CC(=O)N(C)C1CCN(C(=O)N(C)[C@H](C(=O)N[C@H]2Cc3nc(cs3)-c3ccc4c(c3)c(c(-c3cccnc3[C@H](C)OC)n4CC)CC(C)(C)COC(=O)[C@@H]3CCCN(N3)C2=O)C(C)C)C1 (stereo partly drawn) [Example A384]	10 to 100	100 to 1000	10 to 100			10 to 100 nM											100 to 1000	10 to 100
CO[C@@H](COC1CN(C(=O)C#CC(C)(C)N(C)C)C1)C(=O)N[C@H]1Cc2cccc(c2)-c2ccc3c(c2)c(c(-c2cccnc2[C@H](C)OC)n3CC(F)(F)F)CC(C)(C)COC(=O)[C@@H]2CCCN(N2)C1=O [Example A556]	> 10000	> 10000				< 10 nM		1000 to 10000 nM	1000 to 10000 nM		> 10000 nM				> 10000 nM	1000 to 10000	> 10000	< 10
CCn1c(-c2cccnc2[C@H](C)OC)c2c3cc(ccc31)N1CCO[C@@H](C[C@H](NC(=O)[C@H](C(C)C)N(C)C(=O)[C@@]3(F)CCN(C(=O)C#CC(C)(C)N4CCC4)C3)C(=O)N3CCC[C@H](N3)C(=O)OCC(C)(C)C2)C1 [Example A726]	> 10000	> 10000				10 to 100 nM		1000 to 10000 nM	1000 to 10000 nM		1000 to 10000 nM				> 10000 nM	100 to 1000		
